The source of these data is article PMC3601441 (Journal of medicinal chemistry, 2011).

Values joined by “and” are separate entries in the source; they are usually repeats but may differ in a detail not shown here. Identical values can stand only once. Counter-ions that a name gives are not always drawn. Like-named read-outs stand apart in the source and are kept apart here.

The target in data set [1] is E. coli DXR (EcDXR) (Escherichia coli, UniProt P45568). As to the kind of experiment: biochemical. The data set is classed as biochemical.
Data set [2] deals with M. tuberculosis DXR (MtDXR) (Mycobacterium tuberculosis, UniProt P9WNS1). The data set is classed as biochemical. As to conditions: for Ki: read-out: MtDXR Ki; for times less active against MtDXR than 1 and 2: compared with parent compounds 1 and 2.
For data set [3], the system named is MtDXR. To be noted: read-out: Km of substrate for MtDXR; ref 2d; cited from earlier work.
Data set [4] deals with EcDXR. As to conditions: read-out: Km of substrate for EcDXR; cited from earlier work.
In data set [5] the test system is P. falciparum. As to conditions: read-out: EC50 against P. falciparum; ref 8j; cited from earlier work.
For data set [6], the system named is DXR. To be noted: read-out: DXR IC50; ref 9b; cited from earlier work.
Data set [7] has as its system MtDXR. As to conditions: read-out: MtDXR IC50; using […] of Mn2+; cited from earlier work.
The conditions of data set [8]: background statement, no reference given; cited from earlier work.

Sequence of M. tuberculosis DXR (MtDXR) (P9WNS1 whole entry, looked up): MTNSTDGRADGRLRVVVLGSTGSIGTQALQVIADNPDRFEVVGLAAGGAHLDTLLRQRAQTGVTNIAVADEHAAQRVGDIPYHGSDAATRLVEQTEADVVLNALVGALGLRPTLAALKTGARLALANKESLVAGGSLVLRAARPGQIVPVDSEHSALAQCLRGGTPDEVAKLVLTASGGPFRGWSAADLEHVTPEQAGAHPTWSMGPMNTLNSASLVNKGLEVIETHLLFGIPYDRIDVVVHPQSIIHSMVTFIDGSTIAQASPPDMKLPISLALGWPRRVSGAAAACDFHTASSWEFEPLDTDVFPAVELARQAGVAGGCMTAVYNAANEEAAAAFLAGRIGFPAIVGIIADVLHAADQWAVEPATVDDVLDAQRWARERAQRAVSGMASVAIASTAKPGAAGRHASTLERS
Sequence of E. coli DXR (EcDXR) (P45568 whole entry): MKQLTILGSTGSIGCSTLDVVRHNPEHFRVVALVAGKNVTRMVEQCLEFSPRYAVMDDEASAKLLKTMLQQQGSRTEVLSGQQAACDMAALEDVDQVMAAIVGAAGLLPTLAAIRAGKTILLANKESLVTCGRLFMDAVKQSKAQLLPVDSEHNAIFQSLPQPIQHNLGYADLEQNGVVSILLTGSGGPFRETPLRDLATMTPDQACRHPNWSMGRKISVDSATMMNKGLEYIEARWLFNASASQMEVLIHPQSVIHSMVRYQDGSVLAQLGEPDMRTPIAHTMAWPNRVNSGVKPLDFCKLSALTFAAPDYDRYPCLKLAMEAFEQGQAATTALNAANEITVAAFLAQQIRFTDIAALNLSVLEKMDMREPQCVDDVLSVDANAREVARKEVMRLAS

As to `O=P(O)(O)CCc1ccccc1` [Compound 20, 2-Phenylethylphosphonic acid disodium salt], the inhibition constant Ki in data set [1] was > 49.7 µM; in data set [1] (read-out: EcDXR Ki) it was > 100 µM; in data set [2], > 100 µM.
Turning to `O=P(O)(O)Cc1cccc(O)c1O` [Compound 23], the inhibitory constant (Ki) in data set [1] was > 49.7 µM; in data set [1] (read-out: EcDXR Ki), > 100 µM; in data set [2], > 100 µM. Moreover, in data set [1] (up to 100 μM), the “inhibitory activity against EcDXR (in words)” value is “no inhibitory activity”.
With `O=C(O)c1ccccn1` [Compound 39], the Ki is > 49.7 µM in data set [1], > 100 µM in data set [1] (read-out: EcDXR Ki) and > 100 µM in data set [2].
With `CC(=O)[C@@H](O)[C@H](O)COP(=O)(O)O` [DXP, 1-deoxy-D-xylulose-5-phosphate], the Km was 47.1 µM in data set [3] and 99 µM in data set [4].
For `O=P(O)(O)Cc1cccnc1` [Compound 14], the inhibition constant (Ki) in data set [2] was > 100 µM.
For `O=CN(O)CCC(c1ccc(Cl)c(Cl)c1)P(=O)(O)O` (stereo not shown) [Compound 3, reference compound], in data set [2] (Ki MtDXR vs Ki EcDXR), the “affinity loss to MtDXR compared to EcDXR” value was determined as 21 fold. Moreover, the “times less active against MtDXR than 1 and 2” value in data set [2] was ~ 10 ×. Also, the 50% effective concentration (EC50) in data set [5] was 0.09 µM.
In the case of `O=P(O)(O)CCc1ccccn1` [Compound 12, 2-(Pyridin-2-yl)ethylphosphonic acid disodium salt], the “times less potent than 8 against EcDXR” value in data set [1] (Ki ratio to compound 8) was ~ 8 ×. Also, the inhibition constant Ki in data set [2] was > 100 µM.
Consider `Cc1ccc(-c2ccc(CP(=O)(O)O)nc2)cc1` [Compound 36, 5-(4-Methylphenyl)pyridin-2-ylmethylphosphonic acid disodium salt], for which the Ki in data set [2] was > 100 µM.
Turning to `O=C(O)Cc1ccccn1` [Compound 40], the Ki is > 49.7 µM in data set [1], > 100 µM in data set [1] (read-out: EcDXR Ki) and > 100 µM in data set [2].
Consider `O=C(NO)c1ccccn1` [Compound 43, N-hydroxy-pyridine-2-carboxamide], for which, in data set [1], the Ki is > 49.7 µM.
Take `CC(=O)N(O)CCC(c1ccc(Cl)c(Cl)c1)P(=O)(O)O` (stereo not shown) [Compound 4, reference compound]: the “affinity loss to MtDXR compared to EcDXR” value in data set [2] (Ki MtDXR vs Ki EcDXR) came out at 42 fold. In addition, in data set [2], the “times less active against MtDXR than 1 and 2” value was ~ 10 × and 10 ×. Besides, the concentration giving a half-maximal response (EC50) in data set [5] is 0.25 µM.
Take `O=C(O)Cc1ccncc1` [Compound 42]: the Ki in data set [1] is > 49.7 µM; in data set [1] (read-out: EcDXR Ki), > 100 µM; in data set [2], > 100 µM.
As to `O=c1ccc(-c2ccccc2)cn1O` [Compound 7, reference compound], in data set [2] (Ki MtDXR vs Ki EcDXR), the “times weaker binding / less active against MtDXR than EcDXR” value (“times weaker binding / less active” for short) was 31 ×. Moreover, the IC50 in data set [6] is 1.4 µM.
`O=P(O)(O)C(Nc1ccc(Cl)cn1)P(=O)(O)O` [Compound 6, reference compound]: in data set [2], the “times weaker binding / less active” value is > 5 × and the Ki is > 100 µM.
As to `O=C(O)Cc1ccc(-c2ccccc2)cn1` [Compound 46, (5-Phenylpyridin-2-yl)acetic acid], the inhibitory constant (Ki) in data set [1] is > 49.7 µM.
For `COc1cccc(-c2ccc(CP(=O)(O)O)nc2)c1` [Compound 37, 5-(3-Methoxyphenyl)pyridin-2-ylmethylphosphonic acid disodium salt], in data set [2], the inhibition constant Ki was > 100 µM.
Consider `O=P(O)(O)Cc1ccc(O)cn1` [Compound 30, (5-Hydroxylpyridin-2-yl)methylphosphonic acid disodium salt], for which the “times as potent as 8 against EcDXR” value in data set [1] (Ki ratio to compound 8) is ~ 3 ×.
`O=P(O)(O)Cc1ccc(Cl)c(Cl)c1` [Compound 21]: the figures for the inhibition constant (Ki) in data set [1], in data set [1] (read-out: EcDXR Ki) and in data set [2] were > 49.7 µM, > 100 µM and > 100 µM, respectively. Moreover, the “inhibitory activity against EcDXR (in words)” value in data set [1] (up to 100 μM) is on record as “essentially no activity”. For the same molecule, the “inhibitory activity against MtDXR (in words)” value in data set [2] is “essentially no activity”.
As to `O=CN(O)CCCP(=O)(O)O` [Compound 1, Fosmidomycin], the “times weaker binding / less active” value in data set [2] (Ki MtDXR vs Ki EcDXR) is ~ 5 × and 5 ×. The EC50 in data set [5] is 1.1 µM. The half-maximal inhibitory concentration (IC50) in data set [7] was 0.08 µM. In data set [8], the half-life in plasma is reported as ~ 1 h and the oral availability result was “poor oral availability”.
Take `O=P(O)(O)CCCc1ccccn1` [Compound 13, 3-(Pyridin-2-yl)propylphosphonic acid disodium salt]: in data set [1] (Ki ratio to compound 8), the “times less potent than 8 against EcDXR” value is recorded as ~4 ×. In data set [2], the inhibition constant Ki is > 100 µM.
With `O=c1cccc(CCP(=O)(O)O)[nH]1` [Compound 25, 2-(Pyridin-2-one-6-yl)ethylphosphonic acid disodium salt], in data set [1], the Ki was > 49.7 µM. In data set [1] (up to 100 μM), the “inhibitory activity against EcDXR (in words)” value was “essentially inactive”.
As to `O=P(O)(O)Cc1ccccc1` [Compound 19, Benzylphosphonic acid disodium salt], the Ki is > 49.7 µM in data set [1], > 100 µM in data set [1] (read-out: EcDXR Ki) and > 100 µM in data set [2].
As to `O=C(O)Cc1cccnc1` [Compound 41], the Ki is > 49.7 µM in data set [1], > 100 µM in data set [1] (read-out: EcDXR Ki) and > 100 µM in data set [2].
For the molecule `O=c1ccc(CP(=O)(O)O)cn1O` [Compound 24, 5-(1-Hydroxy-pyridin-2-one)methylphosphonic acid disodium salt], in data set [1], the Ki was > 49.7 µM. Also, the “inhibitory activity against EcDXR (in words)” value in data set [1] (up to 100 μM) is “essentially inactive”.
Regarding `O=P(O)(O)Cc1ccc(-c2ccc(Cl)cc2)cn1` [Compound 35, 5-(4-Chlorophenyl)pyridin-2-ylmethylphosphonic acid disodium salt], the inhibition constant (Ki) in data set [2] is > 100 µM.
The same measure, in the same setting: next, `O=P(O)(O)Cc1cccc(-c2ccccc2)n1` [Compound 33, (6-Phenylpyridin-2-yl)methylphosphonic acid disodium salt]: > 100 µM.
For `O=P(O)(O)c1ccccn1` [Compound 11, Pyridin-2-ylphosphonic acid disodium salt], the Ki in data set [1] is > 49.7 µM; in data set [1] (read-out: EcDXR Ki) it was > 100 µM; in data set [2], > 100 µM. Moreover, in data set [1] (up to 100 μM), the “inhibitory activity against EcDXR (in words)” value is listed as “essentially no activity”.
Consider `CC(=O)N(O)CCCP(=O)(O)O` [Compound 2, FR900098, reference compound], for which the “times weaker binding / less active” value in data set [2] was ~ 6 ×.
Regarding `O=P(O)(O)Cc1cnccn1` [Compound 16, Pyrazin-2-ylmethylphosphonic acid disodium salt], the Ki in data set [2] is > 100 µM.
`O=P(O)(O)Cc1ccc(OCc2ccccc2)cn1` [Compound 31, (5-Benzyloxypyridin-2-yl)methylphosphonic acid disodium salt]: the inhibition constant Ki in data set [1] was > 49.7 µM; in data set [1] (read-out: EcDXR Ki) it was > 100 µM; in data set [2] it was > 100 µM. Further, in data set [1], the “inhibitory activity against EcDXR (in words)” value was “inactive”.
As to `O=C(Cc1ccc(-c2ccccc2)cn1)NO` [Compound 47, N-hydroxy-(5-phenylpyridin-2-yl)acetamide], in data set [1], the inhibitory constant (Ki) was > 49.7 µM.
`O=P(O)(O)Cc1ccc(-c2ccccc2)cn1` [Compound 9, 5-phenylpyridin-2-ylmethylphosphonic acid]: in data set [1], the “times as potent as 8 against EcDXR” value is 5 ×. Also, the “affinity loss to MtDXR compared to EcDXR” value in data set [2] (Ki MtDXR vs Ki EcDXR) is 7 fold.
For `O=P(O)(O)CCc1ccccc1O` [Compound 22, 2-(2-Hydroxyphenyl)ethylphosphonic acid disodium salt], the Ki was > 49.7 µM in data set [1], > 100 µM in data set [1] (read-out: EcDXR Ki) and > 100 µM in data set [2]. In addition, the “inhibitory activity against EcDXR (in words)” value in data set [1] (up to 100 μM) is reported as “no inhibitory activity”.
`O=C(Cc1ccccn1)NO` [Compound 44, N-hydroxy-(pyridin-2-yl)acetamide]: the Ki in data set [1] was > 49.7 µM.
`O=P(O)(O)c1ccccc1` [Compound 18, Phenylphosphonic acid disodium salt]: the Ki is > 49.7 µM in data set [1], > 100 µM in data set [1] (read-out: EcDXR Ki) and > 100 µM in data set [2].
As to `O=C(O)c1ccc(-c2ccccc2)cn1` [Compound 45, 5-Phenylpyridine-2-carboxylic acid], the inhibition constant Ki in data set [1] is > 49.7 µM; in data set [1] (read-out: EcDXR Ki), > 100 µM; in data set [2], > 100 µM.
`O=P(O)(O)Cc1cc(-c2ccc(F)cc2)ccn1` [Compound 28, 4-(4-Fluorophenyl)pyridin-2-ylmethylphosphonic acid disodium salt]: in data set [2], the inhibition constant (Ki) is > 100 µM.
For the molecule `O=S(=O)(O)Cc1ccc(-c2ccccc2)cn1` [Compound 48, 5-Phenylpyridin-2-ylmethanesulfonic acid sodium salt], the inhibition constant Ki in data set [1] was > 49.7 µM; in data set [1] (read-out: EcDXR Ki), > 100 µM; in data set [2], > 100 µM.
